Test results from BindingDB's records for doi:10.1021/acs.jmedchem.9b01143 (2019).

Target: Activin receptor type-2A (ACVR2A) (Homo sapiens) (UniProt P27037)
Assay: Inhibition of human recombinant ACTR2 (162 to end residues) using casein as substrate incubated for 120 mins in presence of [gamma-33P]ATP by radiometric scintillation counting analysis

CN(C)c1ccc(C(=O)Nc2cccc(NC(=O)COc3ccc4c(=O)ccoc4c3)c2)cc1
IC50: > 10 µM
